“And” between values parts separate entries of the source, which are not always exact repeats. Equal values may be shown once.
System: D. immitis JYD-34 (macrocyclic lactone resistant isolate)
Design: species or system Dirofilaria immitis
Details: in vivo

With Milbemycin oxime [MBO] the “JYD-34 heartworms among recovered worms, all seven dogs in Group 4” value was 100%, the “Number of JYD-34 Worms” value was 18 and 15 and 21 and 22 and 14 and 20 and the “Percentage of JYD-34 Worms” value (po) was 100%.

Reference: US20230313318A1, “MICR[…] METHOD OF USE THEREOF” (priority 2022, published 2023)
